For this assay, the system named is SN12K1 renal. Kind of assay: NCI tumour cell line growth inhibition, 48 h.

Several values for one entry are separate records, joined by “and”; a condition that tells them apart may be missing. Identical values can stand only once.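 Five compound concentrations were applied to cells in 96-well plates for 48 hours; endpoints were derived by simple linear interpolation of the resulting dose-response curve. At the GI50, growth is halved. At the TGI there is no net growth.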

Consider `COc1nc(C(Cl)(Cl)Cl)c(Cl)c(OC)c1Cl`, for which the TGI came out at 62.4 µM.

In the case of `N[C@@H](Cc1ccc(N(CCCl)CCCl)cc1)C(=O)O`, the GI50 was 11.8 µM; the TGI is 60.5 µM and 102 µM.
